pKd: −log10 of the molar value. Where two headings read alike, the source gives them in different places.
How the values were obtained:
[1] = molecular target: T1, Human serum albumin (HSA) (Homo sapiens, UniProt P02768); experiment: SPR binding kinetic measurement on immobilized HSA
T1 construct: purchased Sigma-Aldrich A3782
Protocol: Binding kinetic measurement was performed using Reichert 4-chanel SPR instrument Reichert4SPR (Reichert, USA). HSA was immobilized on carboxymethyl dextran chip at the condition of 0.1 mg/mL protein in 10 mM sodium acetate (pH 4.5). The final density is about 12,000 RU and flow rate is 20 μl/min. During immobilizing, the sensor chip was preconditioned with 3-min injection of double diluted water. Thereafter, the first flow cell surface was activated through using 0.05 M N-hydroxysuccinimide (NHS)/0.2 M 1-ethyl-3-(3-dimethylaminopropyl)carbodiimide hydrochloride (EDC) for 7 min, and then functionalized by injecting a solution of HSA (0.1 mg/mL) in 10 mM sodium acetate buffer (pH 4.5) for 20 min. Finally, unreacted NHS groups were deactivated with 1 M ethanolamine (pH 8.5) for 10 min. Simultaneously, the control flow cell was treated using the same conditions as described above. […] Final data obtained were corrected for instrumental and bulk artifacts by double referencing to a control sensor chip surface and blank buffer injection. The binding responses were concentration-dependent and dissociation constant KD values were derived from 1:1 kinetic model as well as steady state analysis using TraceDrawer software (Reichert, USA).

[2] = molecular target: T1, Human serum albumin (HSA); experiment: Steady-state fluorescence quenching of HSA by anticancer leads; format: binding; settings: for ΔG: temperature-dependent fluorescence quenching
Protocol: Steady-state fluorescence spectra were recorded on an Eclipse fluorescence spectrophotometer (Agilent Cary, USA) with a 1 cm path length quartz cuvette at 293 K and 298 K, respectively. Sample temperature was kept within ± 0.2 degree by recycled water throughout the experiment. The excitation and emission band passes were all set at 5 nm by keeping the excitation wavelength at 290 nm to achieve maximum fluorescence emission. The emission spectra was measured in the region of 305–450 nm, and the fluorescence intensity at peak position 340 nm was extracted for further analysis. HSA was diluted from stock solution with reaction buffer to a concentration of 10 μM for each quenching experiment. Titration was performed by successive addition of 1 mM anticancer leads into quartz cuvette, and the minor intensity decrease due to volume change was corrected by the control experiment.
In Fluorescence quenching, the inner filter effect (IFE) is of importance due to its effect on the emission intensity. One of the biggest causes of the IFE is the re-absorption of the emitted light in the excitation and emission region. It is an important issue that these effects cause severe underestimation of the fluorescence intensity measured because the concentration of the quencher increases when a Stern-Volmer analysis is carried out, and therefore the ability of the quencher to absorb the emitted light will also increase.
Where Aem and Aex represent the absorbance of small moecule at emission and excitation wavelength, respectively. F0 and Fc represent the observed fluorescence intensity and corrected fluorescence intensity, respectively.
In an attempt to gain insight into the molecular mechanism of HSA association, we have determined the binding mechanism, binding constant, binding site, and the number of binding sites. […] (1) Where F and F0 is the steady state fluorescence intensity in the presence and absence of quencher, respectively; Kq, τ0 and [Q] is the quenching rate constant, the average lifetime of the molecule without quencher and the concentration of quencher, respectively.
Modified Stern-Volmer plots are shown in Fig 3C and 3D, showing good linearity to modified Stern-Volmer equation: log[(F0−F)/F]=logKA+nlog[Q] (2)
F0−F/F0=Bmax(KA[Q])^h/1+(KA[Q])^h+Pnsb×[Q] (3)
Where F and F0 are the steady state fluorescence intensity in the presence and absence of quencher, respectively; [Q] is the concentration of quencher, Bmax is the maximum independent binding site classes, KA is the effective binding affinity; h is the Hill coefficient that describes the degree of ligand binding cooperativity and Pnsb is the nonspecific binding coefficient.
Usually, the types of interaction forces between small molecules and macromolecules mainly include hydrogen bonds, van der Waals forces, electrostatic interactions and hydrophobic interactions. To estimate the binding mode, the thermodynamic parameters, ΔH, ΔS and ΔG are often considered. On the basis of the characteristic signs of the thermodynamic parameters, the interaction forces between small molecule and protein can be assigned to hydrophobic interaction (ΔH > 0, ΔS > 0), van der Waals force (ΔH < 0, ΔS < 0) and electrostatic attraction (ΔH < 0, ΔS > 0). The entropy and enthalpy can be considered constant at a constant temperture, which is regulated by the van’t Hoff equation: lnKA=−ΔH/RT+ΔS/R (4)

[3] = molecular target: T1, Human serum albumin (HSA); experiment: Isothermal titration calorimetry (ITC) of leads binding HSA; settings: 310 K
Protocol: The calorimetry measurement was carried out by isothermal titration calorimetry (ITC) (TA Instruments, USA) at 310 K. HSA in different reaction buffers (0.01 M PBS and 0.025 M MES) were extensively dialyzed before titration. […] The titration was afterward started with continuously stirring at 250 rpm. The raw heat rate data were integrated under injection peaks to obtain the reaction heat of each injection after substracting dilution heat which was measured by injecting with a blank control titration. The calculated heat changes were analyzed using the NANOanalyze software (TA Instruments, USA) and replotted with Origin 8.5. The free energy change (ΔG), enthalpy change (ΔH) and entropy change (ΔS) were calculated according to the thermodynamic formulas below: ΔG=−RTlnKA=ΔH−TΔS
Where KA is the association constant at the absolute temperature T (310 K) and R represents the gas constant (8.3151 J mol^-1K^-1).

plasma proteins = experiment: Estimate of fraction bound to plasma proteins from association constants; design: species or system human; settings: estimated with Kd / ([P]f + Kd)
Text: The function of HSA as drug carrier may facilitate drug access to the action site and be related to drug safety issues. Application of HSA on drug delivery may therefore be important in anticancer therapy, which has been taken into account in estimating therapeutic outcomes, particularly for highly bound compounds (defined as < 5% free drug compounds in blood). The free to bound drug rates can be estimated by using the formula Kd / ([P]f + Kd) through approximating the free protein concentration as [P]f = [P]T − [L]T [41]. […] Therefore, the affinity determines the steady state concentration of unbound or exposed drug in the plasma, maintaining a concentration gradient between the intestinal lumen and plasma, which is considered as the only fraction exerting the bioactivity. […] Moreover, both hepatic uptake and glomerular filtration are directly proportional to the free drug fraction presented in the plasma while drugs are modulated by the affinity difference of the plasma and tissue proteins. If a drug is highly bound to HSA and has a high extraction raio, the binding promotes metabolism by transporting the drug to liver, resulting in the decrease of free drug fraction. On the other hand, if a drug has a low liver extraction ratio, metabolism will be decreased by high HSA binding. […]

[4] = molecular target: T1, Human serum albumin (HSA); experiment: Fluorescence resonance energy transfer (FRET) distance HSA W214 to lead; format: binding; settings: Forster theory; k^2 = 2/3, N = 1.36, Φ = 0.15
Text: Fluorescence resonance energy transfer (FRET) occurs when the UV absorption spectrum of small molecule (acceptor) overlaps with the fluorescence emission spectrum of fluoreophore (donor). The fluorescence emission peak of HSA mostly locates in the range of the UV-vis absorption spectra of the two anticancer leads (Fig 5A and 5B). This indicates the possibility of FRET occuring between HSA and anticancer leads. According to Forster’s non-radiative energy transfer theory, the distance r between donor W214 of HSA and the acceptor of small molecule is determined by the relationship below: E=1−F/F0=R0^6/R0^6+r^6 (5) where E is the energy transfer efficiency; F and F0 are the fluorescence intensity in the presence and absence of quencher. […] In this case here, k^2 = 2/3 is for random orientation as in fluid solution, N = 1.36, Φ = 0.15, and J is calculated as: J=∑F(λ)ε(λ)λ^4Δλ/∑F(λ)Δλ (7) where F(λ) is the fluorescence intensity of the fluorescence donor of wavelength λ; and ε(λ) is the molar absorption coefficient calculated by Lambert-Beer relationship ε(λ) = A(λ)/cl at wavelength λ. The integration step was chosen to be the scanning data interval of 1 nm.

T1 sequence (P02768 25-609): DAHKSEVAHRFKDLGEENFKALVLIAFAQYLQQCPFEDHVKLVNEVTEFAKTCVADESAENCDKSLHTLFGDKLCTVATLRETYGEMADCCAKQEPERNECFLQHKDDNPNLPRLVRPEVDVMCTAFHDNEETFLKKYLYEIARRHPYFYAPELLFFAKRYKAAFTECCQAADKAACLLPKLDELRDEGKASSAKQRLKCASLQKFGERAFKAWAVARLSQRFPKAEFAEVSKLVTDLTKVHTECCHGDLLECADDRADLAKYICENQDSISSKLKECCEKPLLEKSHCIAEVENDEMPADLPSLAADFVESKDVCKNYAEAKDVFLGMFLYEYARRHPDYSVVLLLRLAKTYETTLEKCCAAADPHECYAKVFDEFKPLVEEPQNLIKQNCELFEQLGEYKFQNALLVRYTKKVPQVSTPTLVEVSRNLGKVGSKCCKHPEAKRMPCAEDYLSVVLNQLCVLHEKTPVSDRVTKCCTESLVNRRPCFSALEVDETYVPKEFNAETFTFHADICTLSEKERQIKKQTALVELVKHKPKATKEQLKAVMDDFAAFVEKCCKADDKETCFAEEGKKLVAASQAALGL

- dissociation rate slower than that of NSC290956 [1]: approximately 5 fold
- kinetic behavior ([1]; SPR sensorgram shape): fast-on and slow-off
- Ka (association rate constant) ([1]; SPR, 1:1 kinetic model): 2410 M⁻¹ s⁻¹
- koff (dissociation rate constant) ([1]; SPR, 1:1 kinetic model): 0.0333 s⁻¹
- pKd ([1]; SPR, 1:1 kinetic model, read-out: KD (dividing kinetic parameters, 1:1 model)): 4.86
- pKd ([1]; SPR, steady-state phase data, read-out: Steady State KD): 4.91
- binding affinity to HSA larger than that of NSC290956 ([1]; as measured with different experimental methods): 3~8 fold
- n (reaction stoichiometric number, modified Stern-Volmer) ([2]; 293 K): 0.91 ± 0.013
- binding constant KA (modified Stern-Volmer) ([2]; 293 K, fit to Eq (2)): 3.31 ± 0.16 × 10^4 M^-1
- Hill coefficient h (nonlinear regression fitting) ([2]; 293 K, one class of binding sites): ~1.0
- ΔG ([2]; T 293 K): -5.614 kcal/mol
- ΔG ([2]; T 298 K): -5.636 kcal/mol
- n obtained by Hill equation ([2]; as quoted in the ITC comparison): 0.91
- quenching rate constant Kq (Stern-Volmer) ([2]; fluorescence lifetime of tryptophan in HSA around 10^-8 s, 10 μM HSA): 1.36 ± 0.016 × 10^12 M^-1s^-1
- ΔH ([2]; van't Hoff, 293 K and 298 K): -4.548 kcal/mol
- ΔS ([2]; van't Hoff, 293 K and 298 K): 15.27 J mol^-1 K^-1
- stoichiometry number [3]: 0.94 ± 0.06
- ΔG [3]: -6.898 kcal/mol
- ΔH [3]: -5.581 ± 0.605 kcal/mol
- ΔS [3]: 17.81 J mol^-1 K^-1
- binding constant (KA) ([3]; one-site independent model): 7.29 ± 2.68 × 10^4 M^-1
- compound bound to plasma proteins (plasma proteins): over 98%
- donor-acceptor distance r between HSA and lead [4]: 3.65 nm
SMILES: CC(=O)OCCC(C)CCC=C(C)C (centres unmarked) [NSC48693]

From PMC5398698, “Uncovering the molecular and physiological processes of anticancer leads binding human serum albumin: A physical insight into drug efficacy” (PLoS ONE, 2017)
